Assay results reported in patent publication US12329815B2, “Acoustic driven drug delivery systems” (UNIVERSITY OF OTAGO, priority 2015, dated 2025).

How the values were obtained:
[1] = system: entorhinal cortex (EC) slices; assay: Low Mg2+ (Mg2+-free) in vitro model of epilepsy: frequency of epileptiform events; assay type: cell-based, Wistar rats; details: 10 μM non-liposomal, 15 min wash-in; n=4 slices
Text: In the ‘low Mg^2+’ in vitro model of epilepsy the susceptibility of the entorhinal cortex (EC) to seizure activity is exploited by acutely bathing EC slices in Mg^2+-free artificial cerebrospinal fluid (ACSF). The removal of Mg^2+ from the extracellular environment consequently removes the normal Mg^2+ block on the N-Methyl-D-aspartic acid (NMDA) receptor. […]
Recordings from the tissue chamber were made using Ag/AgCl pellet electrodes (Harvard Apparatus, UK). The signal was collected on a chart recorder (Semat, UK) or digitally recorded (Neurolog, UK). […] Digitally recorded signals were amplified (×100 gain) and high-pass filtered (8.9 Hz cut-off). […] Drugs were applied via the perfusate (Mg^2+-free ACSF) and the frequency of epileptiform events (SLEs or LRDs) were measured before and during drug application. […]
To determine the effect of control drug solutions on the frequency of epileptiform activity, the frequency of events 30 min (in most cases) prior to drug application (pre-drug) was compared with the frequency of events during the wash-in period (15 min). For the drug delivered in liposomes, in addition to the frequency of pre-drug events and during wash-in, the frequency of events during 30 min immediately after the application of the ultrasound trigger was also quantified. […]

[2] = in vivo; cited from earlier work

| Compound | reduction in epileptiform activity [1] | fraction crossing the blood-brain barrier [2] |
| --- | --- | --- |
| NCc1cc(O)no1 [muscimol, 5-(aminomethyl)-isoxazol-3-ol] | 85%±14 |  |
| N[C@@H](Cc1ccc(O)c(O)c1)C(=O)O [levodopa] |  | 5-10% |
